Patent US20120001065A1, “EVALUATING RENAL FUNCTION” (Mayo Foundation for Medical Education and Rsearch, priority 2009, published 2012)
Values joined by “and” are separate entries in the source; they are usually repeats but may differ in a detail not shown here. Equal values may be shown once.

Experiments:
[1] = GFR and ERPF-Long Renal Clearance (iothalamate and PAH continuous infusion): iothalamate concentration and GFR; type: in vivo; parameters: CE GFR / MS GFR: unit not given here; details: one human subject; for CE GFR: corrected GFR per collection period from CE-UV; for CE GFR / MS GFR / Urine iothalamate concentration, CE / Urine iothalamate concentration, MS: continuous infusion; for MS GFR: corrected GFR per collection period from LC-MS/MS; for Plasma iothalamate concentration, CE / Plasma iothalamate concentration, MS: timed plasma collections P1-P6, continuous intravenous infusion; for Plasma iothalamate concentration, CE / Urine iothalamate concentration, CE: CE-UV; for Plasma iothalamate concentration, MS / Urine iothalamate concentration, MS: LC-MS/MS; for Urine iothalamate concentration, CE / Urine iothalamate concentration, MS: timed urine collections U1-U5
Description: For example, GFR can be calculated according to Formula I.
where UIoth is the concentration of iothalamate in urine, V is the urine flow rate (volume per unit of time), and PIoth is the plasma concentration during the urine collection period.
For the simultaneous determination of GFR and ERPF, iothalamate (Conray®, Mallinckrodt Inc. St. Louis, Mo.) and PAH (Aminohippurate Sodium, Merck & Co. Inc. Whitehouse Station, N.J.) were administered intravenously to one human subject. Iothalamate and PAH were administered using previously described constant infusion protocol. […] Blood samples were collected in tubes containing heparin or EDTA. Blood samples were centrifuged at 650 g for 7 minutes to separate plasma. Plasma was collected and stored at 4° C. to 8° C. Urine samples were collected and stored at 4° C. to 8° C. Frozen plasma and urine samples were thawed and stored at 4° C. to 8° C. until analysis.
The timed plasma collections (100 μL of each) were processed independently by diluting 1:3 with water followed by the addition of internal standard, D3-iothalamate and D4-PAH (20 μL of 38 μg/mL stock). The urine samples were diluted 1:10 with water and followed by the addition of internal standard, D3-iothalamate. All urine and plasma samples were then subjected to acetonitrile and/or 70% acetone polypeptide precipitation (100 μL) followed by centrifugation for 5 minutes at 650 g to remove/pellet protein. […]

[2] = GFR and ERPF-Long Renal Clearance (iothalamate and PAH continuous infusion): PAH concentration and ERPF; type: in vivo; parameters: CE ERPF / MS ERPF: unit not given here; details: one human subject
Description: ERPF can be calculated according to Formula II.
Blood samples were collected in tubes containing heparin or EDTA. Blood samples were centrifuged at 650 g for 7 minutes to separate plasma. Plasma was collected and stored at 4° C. to 8° C. Urine samples were collected and stored at 4° C. to 8° C. Frozen plasma and urine samples were thawed and stored at 4° C. to 8° C. until analysis.
The urine samples were diluted 1:10 with water and followed by the addition of internal standard, D3-iothalamate. All urine and plasma samples were then subjected to acetonitrile and/or 70% acetone polypeptide precipitation (100 μL) followed by centrifugation for 5 minutes at 650 g to remove/pellet protein. […]

Structure (SMILES): CNC(=O)c1c(I)c(NC(C)=O)c(I)c(C(=O)O)c1I [Iothalamate, iothalamate]
- CE GFR ([1]; collection period P1): 138
- CE GFR ([1]; collection period P2): 127
- CE GFR ([1]; collection period P3): 123
- CE GFR ([1]; collection period P4): 114
- CE GFR ([1]; collection period P5): 119
- MS GFR ([1]; collection period P1): 141
- MS GFR ([1]; collection period P2): 114
- MS GFR ([1]; collection period P3): 120
- MS GFR ([1]; collection period P4): 116
- MS GFR ([1]; collection period P5): 119
- Plasma iothalamate concentration, CE ([1]; plasma collection P1): 11.645 µg/mL
- Plasma iothalamate concentration, CE ([1]; plasma collection P2): 9.479 µg/mL
- Plasma iothalamate concentration, CE ([1]; plasma collection P3): 8.341 µg/mL
- Plasma iothalamate concentration, CE ([1]; plasma collection P4): 7.334 µg/mL
- Plasma iothalamate concentration, CE ([1]; plasma collection P5): 6.869 µg/mL
- Plasma iothalamate concentration, CE ([1]; plasma collection P6): 6.912 µg/mL
- Plasma iothalamate concentration, MS ([1]; plasma collection P1): 10.6 µg/mL
- Plasma iothalamate concentration, MS ([1]; plasma collection P2): 9.09 µg/mL
- Plasma iothalamate concentration, MS ([1]; plasma collection P3): 7.93 µg/mL
- Plasma iothalamate concentration, MS ([1]; plasma collection P4): 8.21 µg/mL
- Plasma iothalamate concentration, MS ([1]; plasma collection P5): 7.12 µg/mL
- Plasma iothalamate concentration, MS ([1]; plasma collection P6): 6.43 µg/mL
- Urine iothalamate concentration, CE ([1]; urine collection U1): 12.973 µg/mL
- Urine iothalamate concentration, CE ([1]; urine collection U2): 9.189 µg/mL
- Urine iothalamate concentration, CE ([1]; urine collection U3): 8.069 µg/mL
- Urine iothalamate concentration, CE ([1]; urine collection U4): 7.716 µg/mL
- Urine iothalamate concentration, CE ([1]; urine collection U5): 7.333 µg/mL
- Urine iothalamate concentration, MS ([1]; urine collection U1): 12.4 µg/mL
- Urine iothalamate concentration, MS ([1]; urine collection U2): 7.85 µg/mL
- Urine iothalamate concentration, MS ([1]; urine collection U3): 8.09 µg/mL
- Urine iothalamate concentration, MS ([1]; urine collection U4): 8.5 µg/mL
- Urine iothalamate concentration, MS ([1]; urine collection U5): 7.21 µg/mL

Structure (SMILES): Nc1ccc(C(=O)NCC(=O)O)cc1 [PAH, p-aminohippuric acid]
- MS ERPF ([2]; ERPF per collection period from LC-MS/MS, continuous infusion): 586 and 514 and 532 and 602 and 566
- CE ERPF ([2]; ERPF per collection period, CE, continuous infusion): 574 and 534 and 523 and 615 and 543
- Plasma PAH concentration, CE ([2]; timed plasma collections P1-P6, CE, continuous intravenous infusion): 17.755 µg/mL and 17.120 µg/mL and 17.740 µg/mL and 18.320 µg/mL and 18.000 µg/mL and 17.635 µg/mL
- Plasma PAH concentration, MS ([2]; timed plasma collections P1-P6, LC-MS/MS, continuous intravenous infusion): 18.3 µg/mL and 18 µg/mL and 18.7 µg/mL and 18.9 µg/mL and 19.4 µg/mL and 17.9 µg/mL
- Urine PAH concentration, CE ([2]; timed urine collections U1-U5, CE, continuous infusion): 97.620 µg/mL
